From the NIST ThermoML archive (doi:10.1021/je4007019)

Assay: molar heat capacity at constant pressure; xn = mol fraction of the nth substance listed
Conditions: Liquid, Large sample (1 g) DSC

C [methane] + CCC
molar heat capacity at constant pressure [J/K/mol]
Conditions | 108.15 K | 118.15 K | 128.15 K | 143.15 K | 153.15 K | 163.15 K
4700 kPa, x1 = 0.81 | 59.46 | 59.69 | 60.46 | 61.47 | 62.96 | 63.63
5200 kPa, x1 = 0.82 | 59.21 | 59.52 | 60.05 | 61.36 | 62.9 | 63.97
6000 kPa, x1 = 0.81 | 57.53 | 58.6 | 59.05 | 60.8 | 62.56 | 63.41

CCCC [butane] + C
molar heat capacity at constant pressure [J/K/mol]
Conditions | 118.15 K | 128.15 K | 138.15 K | 148.15 K | 158.15 K | 168.15 K | 178.15 K
5050 kPa, x2 = 0.95 | – | – | – | 62.44 | 64.49 | 67.9 | 73.38
5150 kPa, x2 = 0.6 | 76.47 | 76.37 | 77.25 | 77.85 | 78.21 | 78.34 | –
5150 kPa, x2 = 0.88 | 61.84 | 62.6 | 63.49 | 64.92 | 66.55 | 68.32 | –
